Patent publication US20260234187A1, “ANTIMICROBIAL PEPTIDES” (MATERIAS S.R.L., priority 2020, published 2026)
Read-outs that look alike come from different tables or passages of the source. Where no end group is shown, it is not given here.

How the values were obtained:
[1] = format: physicochemical
Method: The structural and conformational characterization of the RiLK1 peptide was assessed by investigating its secondary structure by ^1H NMR spectroscopy in H2O and in a micellar solution of SDS at a concentration of 150 mM to mimic the condition of the bacterial cell membrane.
In fact, the representative structures of the RiLK1 peptide in water show a random orientation of both polar and hydrophobic amino acid side chains.
The helical structure appears well defined and stabilized by hydrophobic interactions of amino acid residues located on the opposite face. It is important to note that, in this arrangement, all the charged side chains are iso-oriented and well prone to interact with the negatively charged surface of the SDS micelles. Furthermore, the two tryptophan residues within the RiLK1 sequence are located at an optimal distance for their mutual stacking, thus contributing to the stabilization of the helix. It should be pointed out that the ^1H NMR spectra of the peptide IDR-1018-K6 (described in patent application WO2019012158) could not be acquired in the presence of micellar solutions of SDS since it is not soluble at the concentrations required to carry out these assays. […] Therefore, it is possible to assert that the NMR analysis in the presence of SDS has shown that the RiLK1 peptide of the present invention is capable of adopting the helix conformation, whereas the IDR-1018-K6 peptide (object of patent WO2019012158) has poor solubility and a heterogeneous system not suitable for NMR structural characterization (Table 2).

[2] = format: physicochemical; details: Tris HCL pH 7, 3 mM SDS
Method: 0.1 g/L of RiLK1 peptide was dissolved in 10 mM Tris HCL at pH 7 and 3 mM SDS. The prepared samples were incubated for 24 hours at 4° C. or 25° C. and analysed at time zero and after 24 hours.

[3] = format: physicochemical; details: 50 μM in 1M NaCl, 25° C.
Method: The stability analysis of the RiLK1 peptide in the presence of a high concentration saline solution (1M NaCl) was carried out by reverse phase (RP) HPLC chromatography, performed on a μBondpack C18 column. 50 μM RiLK1 peptide was dissolved in 1 M NaCl and the samples were incubated at 25° C. and monitored for 9 days.

[4] = system: Aspergillus brasiliensis (ATCC 9341); assay: antifungal activity, plate count, MFC; format: cell-based; details: A. brasiliensis; 25 μM, 6 h
Method: The antifungal activity of the RiLK1 peptide was determined against Aspergillus brasiliensis. For this purpose, a stock culture was prepared in which 10^5 CFUs of A. brasiliensis were inoculated in 10 ml of buffered peptone water. A reference strain (ATCC 9341) was used for this fungal species. The culture was incubated for 6 h at 37° C. with the RiLK1 peptide at 25 μM concentrations. At the same time, control samples were incubated without adding the peptide. 100 μl of the samples thus prepared were seeded on DG18 plates (Dichloran 18% Glycerol Agar-ISO 21527-2) and incubated at 25° C. for 7 days. All experimental conditions investigated used the plate count method to estimate the fungicidal activity of the peptide. Specifically, the numbers of colonies grown on agar plates seeded with the fungal suspensions in the absence or presence of the individual peptide dilutions were counted and compared. The standard deviations of the triplicate incubations of each plate were determined using statistical software. The evaluation of the Minimum Fungicidal Concentration (MFC), i.e., the lowest concentration of antifungal agent capable of 99.9% inhibition of fungal growth on plates, was carried out as described in Bílikova et al, (2015, Peptides 68:190-196).

E. coli = assay: bactericidal activity at 15 μM, CFU versus control; format: cell-based
Method: (§1) The bactericidal activity of further AMP peptides according to the invention, in particular of the RiLK31 peptide (RLRWVKIWKK, SEQ ID NO:31) and the RiLK3 peptide (RLRWVRIWRR, SEQ ID NO:3), was tested. The bactericidal activity was expressed as a percentage of viable cells in terms of CFU (Colony Forming Units) in a bacterial sample exposed to each peptide compared to those in a control bacterial sample in the absence of the peptide. All tests were carried out with the same peptide concentration, corresponding to 15 μM.

Listeria = assay: bactericidal activity at 15 μM, CFU versus control; format: cell-based
Method: as §1

Salmonella = assay: bactericidal activity at 15 μM, CFU versus control; format: cell-based
Method: as §1

Staphylococcus = assay: bactericidal activity at 15 μM, CFU versus control; format: cell-based
Method: as §1

## RLKWVRIWRR-NH2 [RiLK1, RLKWVRIWRR]
[1]
  solubility: 1000 µM
[1]; pH 4.4
  solubility: 900 µM
[2]; 4° C., t = 24 hours
  Random (Bestsel): 47.5%
  Random (DichroWeb CONTIN-LL): 38%
  α-helix (Bestsel): 6.5%
  α-helix (DichroWeb CONTIN-LL): 25%
  β-sheet (Bestsel): 46%
  β-sheet (DichroWeb CONTIN-LL): 37%
[2]; 25° C., t = 24 hours
  Random (Bestsel): 43.6%
  Random (DichroWeb CONTIN-LL): 37%
  α-helix (Bestsel): 6.8%
  α-helix (DichroWeb CONTIN-LL): 24%
  β-sheet (Bestsel): 49.7%
  β-sheet (DichroWeb CONTIN-LL): 39%
[2]; t = 0
  Random (Bestsel): 44.9%
  Random (DichroWeb CONTIN-LL): 36%
  α-helix (Bestsel): 17.9%
  α-helix (DichroWeb CONTIN-LL): 21%
  β-sheet (Bestsel): 37.1%
  β-sheet (DichroWeb CONTIN-LL): 43%
[3]; 5 hours
  yield: +6%
[3]; 24 hours
  yield: +6%
[3]; 29 hours
  yield: +3%
[3]; 48 hours
  yield: −1.5%^
[3]; 53 hours
  yield: +4.3%^
[3]; 6 days
  yield: −6.3%^
[3]; 9 days
  yield: −8%
[4]
  Drop Log CFU/ml: 5 Log CFU/ml
  post-treatment decrease in the fungal load: 5 Log
E. coli
  bactericidal activity: 100%
Listeria
  bactericidal activity: 99.5%
Salmonella
  bactericidal activity: 100%
Staphylococcus
  bactericidal activity: 96.9%^
